From patent US20120309821A1, “Use of epigallocatechin-3-gallate for immune regulation” (NATIONAL DEFENSE MEDICAL CENTER, priority 2011, published 2012)

Columns and labels:
Assay type in all cases: in vivo, mouse
[1] = system: NF-κB p65; assay: Renal nuclear NF-κB p65 activation ELISA (TransAM); settings: 120 mg/kg by gavage daily; week 34; increase seen in disease control
Experimental: Female NZB/W F1 mice were purchased from the Animal Center of the National Taiwan University (Taipei, Taiwan, ROC) and, at 12 weeks of age, were divided into two groups, one of which was given normal saline and served as the disease control, while the other was given 120 mg/kg body weight of EGCG (Ryss Lab, Inc., CA, USA) (this dose is a slight modification of those used in previous in vivo studies) by gavage daily till sacrificed at 34-weeks-old. 8-Week-old NZB/W F1 female mice (prior to onset of autoantibody production) were used as normal controls. Urine samples were collected in metabolic cages every 2 weeks and urine protein levels were measured, and serum samples were used to measure serum levels of blood urea nitrogen (BUN) and creatinine (Cr) as described previously (Ka, S. M. et al. Decoy receptor 3 ameliorates an autoimmune crescentic glomerulonephritis model in mice. J Am Soc Nephrol 18:2473-2485; 2007). […]
Nuclear protein from renal cortex was extracted using a Nuclear Extract Kit (Active Motif) according to the manufacturer's instructions and nuclear NF-κB p65 activation quantified using an ELISA-based TransAM NF-κB kit (Active Motif, Tokyo, Japan) according to the manufacturer's protocol by reading the absorbance on an ELISA plate reader (Bio-Tek, VT, USA) at 450 nm with a reference wavelength of 655 nm.

[2] = system: glutathione peroxidase (GPx); assay: GPx activity in renal cortex lysates; settings: 120 mg/kg by gavage daily; week 34; compared with increase in disease control mice
Experimental: (§1) Female NZB/W F1 mice were purchased from the Animal Center of the National Taiwan University (Taipei, Taiwan, ROC) and, at 12 weeks of age, were divided into two groups, one of which was given normal saline and served as the disease control, while the other was given 120 mg/kg body weight of EGCG (Ryss Lab, Inc., CA, USA) (this dose is a slight modification of those used in previous in vivo studies) by gavage daily till sacrificed at 34-weeks-old. 8-Week-old NZB/W F1 female mice (prior to onset of autoantibody production) were used as normal controls. Urine samples were collected in metabolic cages every 2 weeks and urine protein levels were measured, and serum samples were used to measure serum levels of blood urea nitrogen (BUN) and creatinine (Cr) as described previously (Ka, S. M. et al. Decoy receptor 3 ameliorates an autoimmune crescentic glomerulonephritis model in mice. J Am Soc Nephrol 18:2473-2485; 2007). All animal experiments were performed upon the ethical approval of the Institutional Animal Care and Use Committee of the National Defense Medical Center, Taiwan and according to the ethical rules in the NIH Guide for the Care and Use of Laboratory Animals.

[3] = system: NZB/W F1 lupus-prone mice; assay: Serum BUN and creatinine (renal function) in NZB/W F1 mice; settings: 120 mg/kg by gavage daily; week 34; vs disease control mice
Experimental: as §1

[4] = system: CD19+CD69+ cells (activated B cells); assay: B cell activation in splenocytes by flow cytometry; settings: 120 mg/kg by gavage daily; week 34; EGCG-treated vs disease mice
Experimental: as §1, with “Animals. […]” for “Animals.”

[5] = system: anti-dsDNA antibodies; assay: Serum anti-dsDNA antibody ELISA; settings: 120 mg/kg by gavage daily; week 34; increase over normal control
Experimental: Female NZB/W F1 mice were purchased from the Animal Center of the National Taiwan University (Taipei, Taiwan, ROC) and, at 12 weeks of age, were divided into two groups, one of which was given normal saline and served as the disease control, while the other was given 120 mg/kg body weight of EGCG (Ryss Lab, Inc., CA, USA) (this dose is a slight modification of those used in previous in vivo studies) by gavage daily till sacrificed at 34-weeks-old. 8-Week-old NZB/W F1 female mice (prior to onset of autoantibody production) were used as normal controls. Urine samples were collected in metabolic cages every 2 weeks and urine protein levels were measured, and serum samples were used to measure serum levels of blood urea nitrogen (BUN) and creatinine (Cr) as described previously (Ka, S. M. et al. Decoy receptor 3 ameliorates an autoimmune crescentic glomerulonephritis model in mice. J Am Soc Nephrol 18:2473-2485; 2007). […] Serum levels of anti-dsDNA antibodies were measured using an anti-mouse dsDNA enzyme-linked immunosorbent assay (ELISA) kit (Alpha Diagnostic, TX, USA) according to the manufacturer's instructions. The absorbance at 450 nm was measured using an ELISA plate reader (Bio-Tek, VT, USA).

[6] = system: NLRP3; assay: Western blot of NLRP3 in kidney; settings: 120 mg/kg by gavage daily; week 34; increase seen in disease control
Experimental: as §1, with “Animals. […] Antibodies to histone H3 (Cell Signaling) or β-actin (Santa Cruz) were used as internal controls for the nuclear and cytosolic target proteins, respectively.” for “Animals.”

Substance: Epigallocatechin-3-gallate [EGCG]
- nuclear NF-κB p65 levels (ELISA, renal nuclear protein extracts) [1]: significantly inhibited
- GPx activity in the kidney [2]: even larger increase
- serum levels of BUN [3]: significantly lower
- serum levels of Cr [3]: significantly lower
- percentage of CD19+CD69+ cells (activated B cells) in CD19+ splenocytes [4]: no significant difference
- serum anti-dsDNA antibody levels [5]: not inhibited
- levels of NLRP3 protein in kidney tissues [6]: inhibited
